IC50 data for 27 compounds are collected here from patent publication US20220073536A1 (Rigel Pharmaceuticals, Inc., priority 2003, published 2022).

Assay [1] concerns cultured human mast cells (CHMC). Description: CHMC low cell density IgE activation: tryptase assay. It is filed as cell-based. To be noted: IgE activation. The essentials:
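Anti-IgE-driven degranulation of cultured human mast cells at low density, 1000–1500 cells/well, was induced over 30 min at 37 °C. It was scored by supernatant tryptase activity on a fluorogenic substrate.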

The test system is the same in assay [2]. Description: CHMC low cell density ionomycin activation: tryptase assay. It is filed as cell-based. To be noted: read-out: LD Tryptase, CHMC, Iono, 3 pt.
Setting [3] is: Homo sapiens, Mast cell, low cell density CHMC, tryptase, 3 pt, read-out: LD Tryptase, CHMC, IgE, 3 pt.
[4] abbreviates: Homo sapiens, Mast cell, low cell density CHMC, tryptase, 8 pt, read-out: LD Tryptase, CHMC, IgE, 8 pt.
Where [5] appears, read: Homo sapiens, Mast cell, low cell density CHMC, tryptase, 3 pt.
[6] abbreviates: Homo sapiens, Mast cell, low cell density, 3 pt, read-out: LD Tryptase, CHMC, IgE, 3 pt.
Where [7] appears, read: Homo sapiens, Mast cell, low cell density, 8 pt, read-out: LD Tryptase, CHMC, IgE, 8 pt.
Where [8] appears, read: Homo sapiens, Mast cell, low cell density, 3 pt.
Setting [9] is: Homo sapiens, Mast cell, low cell density CHMC, tryptase release, 3 point, read-out: LD Tryptase, CHMC, IgE, 3 pt.
Setting [10] is: Homo sapiens, Mast cell, low cell density CHMC, tryptase release, 3 point.
[11] abbreviates: low cell density CHMC, tryptase release, 3 point, read-out: LD Tryptase, CHMC, IgE, 3 pt.
[12] abbreviates: low cell density CHMC, tryptase release, 3 point.
[13] abbreviates: Homo sapiens, Mast cell, low cell density CHMC, tryptase readout, 3 pt, read-out: LD Tryptase, CHMC, IgE, 3 pt.
Setting [14] is: Homo sapiens, Mast cell, low cell density CHMC, tryptase readout, 3 pt.
[15] abbreviates: Homo sapiens, Mast cell, low cell density CHMC, tryptase readout, 8 pt, read-out: LD Tryptase, CHMC, IgE, 8 pt.

The structures appear in SMILES notation. pIC50: −log10 of the molar value. Some results are limits rather than exact numbers.

Turning to `Fc1cnc(Nc2cccc(-c3cnco3)c2)nc1Nc1ccc2c(c1)NCCO2` [Compound 232, N4-(3,4-Dihydro-2H,4H-benz[1,4]oxazin-6-yl)-5-fluoro-N2-[3-(oxazol-5-yl)phenyl]-2,4-pyrimidinediamine], the pIC50 was more than 5.00 in assay [1] (low cell density CHMC, tryptase release, 3 pt, read-out: LD Tryptase, CHMC, IgE, 3 pt); more than 5.00 in assay [1] (low cell density CHMC, tryptase release, 8 pt, read-out: LD Tryptase, CHMC, IgE, 8 pt); less than 5.00 in assay [2] (low cell density CHMC, tryptase release, 3 pt).
For the compound `CN(c1ccc2c(c1)OCCO2)c1nc(Nc2cccc(-c3cnco3)c2)ncc1F` [Compound 411], the pIC50 is more than 5.00 in assay [1] (setting [3]), more than 5.00 in assay [1] (setting [4]) and less than 5.00 in assay [2] (setting [5]).
As for `CNC(=O)c1ccc(Nc2ncc(F)c(Nc3cccc(O)c3)n2)cc1Cl` [Compound 468], the results for the pIC50 in assay [1] (setting [6]), in assay [1] (setting [7]) and in assay [2] (setting [8]) were more than 5.00, more than 5.00 and less than 5.00, respectively.
Consider `CN(c1ccc(Cl)c(C(F)(F)F)c1)c1nc(Cl)ncc1F` [Compound 658], for which the pIC50 in assay [1] (setting [9]) and in assay [2] (setting [10]) was less than 5.00 in each case.
Regarding `Cc1cc(C)cc(Nc2ncc(F)c(N(C)c3ccc4c(c3)N(C)C(=O)C(C)(C)O4)n2)c1` [Compound 391], the pIC50 in assay [1] (setting [3]) and in assay [2] (setting [5]) was more than 5.00 throughout.
Turning to `O=C(Nc1ccc(Nc2ncc(F)c(NC3CCC3)n2)cc1)c1ccccc1` [Compound 1154, N2-(4-Benzamidophenyl)-N4-cyclobutyl-5-fluoro-2,4-pyrimidinediamine], the values for the pIC50 in assay [1] (setting [3]) and in assay [2] (setting [5]) were more than 5.00 and less than 5.00, respectively.
As to `Cc1cc(N(C)c2nc(Nc3ccc(-c4ncco4)cc3)ncc2F)cc(C)c1Cl` [Compound 596], the pIC50 in assay [1] (setting [9]) and in assay [2] (setting [10]) was less than 5.00 each time.
For the compound `Fc1cnc(Nc2cccc(NC3=NCCN3)c2)nc1NC1CCCCC1` [Compound 1177], the pIC50 in assay [1] (setting [3]) and in assay [2] (setting [5]) was less than 5.00 throughout.
Turning to `COC(=O)CN(c1ccc2c(c1)OCCO2)c1nc(Nc2cccc(-c3cnco3)c2)ncc1F` [Compound 443], the pIC50 was more than 5.00 in assay [1] (setting [3]) and less than 5.00 in assay [2] (setting [5]).
For `COc1cc(Nc2nc(Nc3ccc4oc(C(=O)O)cc4c3)ncc2F)cc(OC)c1` [Compound 382], the pIC50 in assay [1] (setting [3]) and in assay [2] (setting [5]) was less than 5.00 throughout.
Consider `CNC(=O)Cn1ccc2ccc(Nc3ncc(F)c(Nc4ccc5c(c4)OCCO5)n3)cc21` [Compound 649, N4-(3,4-Ethylenedioxyphenyl)-5-fluoro-N2-[1-(N-methylamino)carbonylmethyleneindol-6-yl]-2,4-pyrimidinediamine], for which the pIC50 was more than 5.00 in assay [1] (setting [11]); more than 5.00 in assay [1] (low cell density CHMC, tryptase release, 8 point, read-out: LD Tryptase, CHMC, IgE, 8 pt); less than 5.00 in assay [2] (setting [12]).
Consider `CCOC(=O)c1cc2cccc(Nc3ncc(F)c(NC4CCC4)n3)c2[nH]1` [Compound 1107, N4-Cyclobutyl-N2-[2-(ethoxycarbonyl)indol-7-yl]-5-fluoro-2,4-pyrimidinediamine], for which the pIC50 in assay [1] (setting [13]) and in assay [2] (setting [14]) was more than 5.00 throughout.
Regarding `CC1(C)Oc2ccc(Nc3nc(Nc4cccc(-c5cnco5)c4)ncc3F)cc2NC1=O` [Compound 1016, N4-(2,2-Dimethyl-3-oxo-4H-benz[1,4]oxazin-6-yl)-5-fluoro-N2-[3-(oxazol-5-yl)phenyl]-2,4-pyrimidinediamine], the pIC50 was more than 5.00 in assay [1] (setting [13]), more than 5.00 in assay [1] (setting [15]) and less than 5.00 in assay [2] (setting [14]).
On to `CC(=O)N1CCN(c2ccc(Nc3ncc(F)c(NC4CNC4)n3)cc2)CC1` [Compound 1124], for which the pIC50 in assay [1] (setting [3]) and in assay [2] (setting [5]) was less than 5.00 in each case.
With `COc1ncc(F)c(N(C)c2ccc3c(c2)OCCO3)n1` [Compound 480], the pIC50 in assay [1] (setting [6]) and in assay [2] (setting [8]) was less than 5.00 each time.
Regarding `CNC(=O)c1cc(Nc2ncc(F)c(Nc3ccc4c(c3)OCCO4)n2)ccc1Cl` [Compound 448], the pIC50 in assay [1] (setting [3]) was more than 5.00; in assay [1] (setting [4]), more than 5.00; in assay [2] (setting [5]), less than 5.00.
Regarding `CNS(=O)(=O)c1ccc(Nc2nc(Nc3cc(OC)cc(OC)c3)ncc2F)cc1OC` [Compound 507], the results for the pIC50 in assay [1] (setting [6]), in assay [1] (setting [7]) and in assay [2] (setting [8]) were more than 5.00, more than 5.00 and less than 5.00, respectively.
For `COC(=O)N1CCN(c2ccc(Nc3ncc(F)c(Nc4cccc(NC5=NCCN5)c4)n3)cc2)CC1` [Compound 1100, 5-Fluoro-N4-[3-(N-2-imidazolin-2-yl)aminophenyl]-N2-[4-(4-methoxycarbonylpiperazino)phenyl]-2,4-pyrimidinediamine], the pIC50 in assay [1] (setting [13]) and in assay [2] (setting [14]) was less than 5.00 throughout.
On to `CCn1ncc2ccc(Nc3ncc(F)c(Nc4ccc(Cl)c(Cl)c4)n3)cc21` [Compound 699, N4-(3,4-Dichlorophenyl)-N2-(1-ethylindazol-6-yl)-5-fluoro-2,4-pyrimidinediamine], for which the pIC50 in assay [1] (setting [3]) and in assay [2] (setting [5]) was more than 5.00 each time.
Take `CNS(=O)(=O)c1ccc(Nc2ncc(F)c(Nc3ccc(OC)c(OC)c3)n2)cc1OC` [Compound 494, N4-(3,4-Dimethoxyphenyl)-5-fluoro-N2-[3-methoxyphenyl-4-(N-methylamino)sulfonyl]-2,4-pyrimidinediamine]: the pIC50 is more than 5.00 in assay [1] (low cell density, 3 pt, read-out: LD Tryptase, CHMC, IgE, 3 pt); more than 5.00 in assay [1] (low cell density, 8 pt, read-out: LD Tryptase, CHMC, IgE, 8 pt); less than 5.00 in assay [2] (low cell density, 3 pt).
Take `COCCn1ncc2cc(Nc3ncc(F)c(Nc4ccc5c(c4)NC(=O)C(C)(C)O5)n3)ccc21` [Compound 773, N4-(2,2-Dimethyl-3-oxo-4H-benz[1,4]oxazin-6-yl)-5-fluoro-N2-[1-(2-methoxyethyl)indazol-5-yl]-2,4-pyrimidinediamine]: the pIC50 in assay [1] (Homo sapiens, Mast cell, low cell density CHMC, tryptase release, 3 pt, read-out: LD Tryptase, CHMC, IgE, 3 pt) was more than 5.00; in assay [1] (Homo sapiens, Mast cell, low cell density CHMC, tryptase release, 8 pt, read-out: LD Tryptase, CHMC, IgE, 8 pt), more than 5.00; in assay [2] (Homo sapiens, Mast cell, low cell density CHMC, tryptase release, 3 pt), less than 5.00.
For the compound `CNC(=O)COc1c(C)cc(Nc2ncc(F)c(Nc3ccc4c(c3)OC(F)(F)C(F)(F)O4)n2)cc1C` [Compound 637, N2-[3,5-Dimethyl-4-(N-methylamino)carbonylmethyleneoxyphenyl]-5-fluoro-N4-[3,4-(tetrafluoroethylenedioxy)phenyl]-2,4-pyrimidinediamine], the figures for the pIC50 in assay [1] (setting [11]) and in assay [2] (setting [12]) were more than 5.00 and less than 5.00, respectively.
On to `CNC(=O)c1cc(Nc2nc(Nc3cc(OC)cc(OC)c3)ncc2F)ccc1Cl` [Compound 475, N4-[4-Chloro-3-(N-methylamino)carbonylphenyl]-N2-(3,5-dimethoxyphenyl)-5-fluoro-2,4-pyrimidinediamine], for which the pIC50 was more than 5.00 in assay [1] (setting [6]), more than 5.00 in assay [1] (setting [7]) and less than 5.00 in assay [2] (setting [8]).
As to `CN(c1ccc2c(c1)NC(=O)C(C)(C)O2)c1nc(Nc2cccc(-c3cnco3)c2)ncc1F` [Compound 1023, N4-(2,2-Dimethyl-3-oxo-4H-benz[1,4]oxazin-6-yl)-5-fluoro-N4-methyl-N2-[3-(oxazol-5-yl)phenyl]-2,4-pyrimidinediamine], the pIC50 in assay [1] (setting [13]) was more than 5.00; in assay [1] (setting [15]), more than 5.00; in assay [2] (setting [14]) it was less than 5.00.
Regarding `CN1CCN(c2cccc(Nc3ncc(F)c(Nc4ccc5c(n4)NCCO5)n3)c2)CC1` [Compound 1142, N4-(3,4-Dihydro-2H,4H-5-pyrid[1,4]oxazin-6-yl)-5-fluoro-N2-[3-(4-methylpiperazino)phenyl]-2,4-pyrimidinediamine], the pIC50 is more than 5.00 in assay [1] (low cell density CHMC, tryptase, 3 pt, read-out: LD Tryptase, CHMC, IgE, 3 pt); more than 5.00 in assay [1] (low cell density CHMC, tryptase, 8 pt, read-out: LD Tryptase, CHMC, IgE, 8 pt); less than 5.00 in assay [2] (low cell density CHMC, tryptase, 3 pt).
Turning to `CN1CCN(c2cccc(Nc3ncc(F)c(NC4CCCC4)n3)c2)CC1` [Compound 1160], the pIC50 in assay [1] (setting [3]) was more than 5.00; in assay [2] (setting [5]) it was less than 5.00.
As to `Cc1cc(Nc2ncc(F)c(Nc3ccc4c(c3)NC(=O)C(C)(C)O4)n2)cc(Cl)c1OC(C)C` [Compound 1039, N2-(3-Chloro-4-isopropoxy-5-methylphenyl)-N4-(2,2-dimethyl-3-oxo-4H-benz[1,4]oxazin-6-yl)-5-fluoro-2,4-pyrimidinediamine], the pIC50 in assay [1] (setting [15]) and in assay [2] (setting [14]) was more than 5.00 each time.
